Source: US20100099559A1, “Method for protecting soybeans from being infected by fungi” (BASF SE, priority 2007, published 2010)

Tested on: Cercospora sojina
Experiment: Activity against Cercospora sojina, microtiter plate test
Assay type: cell-based
Details: single active, absorption at 405 nm on day 7 after inoculation, 18° C.
Description: The expected efficacies of active compound combinations were determined using Colby's formula (Colby, S. R. “Calculating synergistic and antagonistic responses of herbicide combinations”, Weeds, 15, pp. 20-22, 1967) and compared with the observed efficacies. E=x+y−x·y/100 Colby's formula • E expected efficacy, expressed in % of the untreated control, when using the mixture of the active compounds A and B at the concentrations a and b • x efficacy, expressed in % of the untreated control, when using the active compound A at the concentration a • y efficacy, expressed in % of the untreated control, when using the active compound B at the concentration b A solution containing 10 mg a.i. per 1 ml dimethyl sulfoxide is prepared. The stock solution is pipetted onto a microtiter plate (MTP) and diluted with water. In a second step a spore suspension of Cercospora sojina (containing a biomalt-based aqueous nutrient medium) was given to the stated active compound concentration. The plates were placed in a water vapor-saturated chamber at temperatures of 18° C. Using an absorption photometer, the MTPs were measured at 405 nm on day 7 after the inoculation. The measured parameters were compared to the growth of the active compound-free control variant and the fungus- and active compound-free blank value to determine the relative growth in % of the pathogens in the individual active compounds.

In the case of `Fc1ccc([C@]2(Cn3cncn3)O[C@H]2c2ccccc2Cl)cc1` (racemic) [epoxiconazole, reference compound], the “Observed activity (% infection)” value (concentration 0.063 ppm) is reported as 0%.
In the case of `Cn1cc(C(=O)Nc2ccccc2[C@@H]2C[C@H]2C2CC2)c(C(F)F)n1` [Compound (Ia), N-(trans-2-bicycloprop-2-ylphenyl)-3-difluoromethyl-1-methyl-1H-pyrazole-4-carboxamide], the “Observed activity (% infection)” value (concentration 0.016 ppm) is reported as 0% and the “Observed activity (% infection)” value (concentration 0.063 ppm) is reported as 31%.
